Test results: US9977014B2, “Nanoparticle sensor for nucleic acid-protein interaction” (Agency for Science, Technology and Research, priority 2013, dated 2018)

How the values were obtained:
FoxA1 [1] = molecular target: T1, FoxA1 (Homo sapiens, UniProt P55317); test: Ligand inhibition of DNA-protein interaction, CP/Probe2-AuNP hybrid sensor; assay type: binding; details: protein:ligand 1:8
T1 construct: Full-length FoxA1 cDNA was cloned into a pHISMBP (Addgene) expression vector; made in house; host or cells: E. coli BL21 (DE3)
T1 sequence (P55317 1-472): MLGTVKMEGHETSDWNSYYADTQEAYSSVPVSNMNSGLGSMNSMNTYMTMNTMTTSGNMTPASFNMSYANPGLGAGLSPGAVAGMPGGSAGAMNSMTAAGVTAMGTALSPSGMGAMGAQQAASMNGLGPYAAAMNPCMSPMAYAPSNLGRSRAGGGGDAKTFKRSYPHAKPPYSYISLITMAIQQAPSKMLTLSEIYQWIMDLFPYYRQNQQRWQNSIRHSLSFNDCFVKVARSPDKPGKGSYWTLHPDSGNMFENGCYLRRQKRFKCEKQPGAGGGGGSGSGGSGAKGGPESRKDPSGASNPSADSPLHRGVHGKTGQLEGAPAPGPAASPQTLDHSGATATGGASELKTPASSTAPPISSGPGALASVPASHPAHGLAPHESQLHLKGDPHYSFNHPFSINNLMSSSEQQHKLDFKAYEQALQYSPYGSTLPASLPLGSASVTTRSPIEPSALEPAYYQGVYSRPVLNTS
Experimental: For screening of ligand inhibition of the DNA-protein interaction (FIG. 4(B)), the ligand and protein were incubated at a molar ratio of 8:1 for 10-20 min at RT prior to the addition of dsDNA-AuNP in step (1) above. Steps (1), (2) and (3) were then repeated.
The proteins and each ligand were mixed at a ratio of 1:8 for 10 min. The protein-ligand pre-incubation solution was then mixed with dsDNA-AuNP and further incubated for 20 mins. The CP was then added as the last step. Positive and negative controls were also prepared, where the positive control was dsDNA-AuNP incubated with protein without ligand, and the negative control was dsDNA-AuNPs incubated without any protein added.

FoxA1 and AP2γ = test: Ligand selectivity (positive = inhibitor, negative) listed in Table 3; assay type: binding; parameters: key: Positive: A positive ligand refers to a ligand that can inhibit protein binding to DNA; Negative: a negative ligand is a ligand that does not interrupt the binding
Text: 9 small ligands (as described in Table 3) were used to disrupt the DNA-protein interaction. […] It must be clearly understood that a particular ligand can bind strongly (with high affinity) to a certain protein but not inhibit the subsequent protein binding to DNA and vice versa. The main objective of this assay is to screen ligands that can interrupt protein binding to DNA regardless of their affinity to the protein. All of the ligands were kept as solutions in DMSO. Before using, they were thawed in a room temperature water bath.

FoxA1 [2] = molecular target: T1, FoxA1; test: Electrophoretic Mobility Shift Assay (EMSA), DNA probe binding; details: read-out: Binding constant (Kd)
Text: (§1) Electrophoretic Mobility Shift Assay (EMSA): Invitrogen Corporation, Panomics Inc., Pierce Biotechnology, Viagene Inc.

His-MBP-FoxA1 = molecular target: T2, His-MBP-FoxA1 (Homo sapiens, UniProt P55317); test: Fluorescence anisotropy (FA) with FAM-labelled DNA probes; details: read-out: Binding constant (Kd)
T2 construct: Full-length FoxA1 cDNA was cloned into a pHISMBP (Addgene) expression vector; made in house; host or cells: E. coli BL21 (DE3)
T2 sequence (P55317 1-472): T1 sequence (P55317 1-472)
Experimental: Fluorescence anisotropy (FA): To determine the binding activity of His-MBP-FoxA1 to various FoxA1 probes containing its cognate DNA element, fluorescence anisotropy (FA) assay was utilized. The wildtype and two mutant probes for FoxA1, labelled with carboxyfluorescein (FAM), are as described earlier in Table 1. The assays were carried out in 384-well microplates (Corning) in which varying concentrations of protein were incubated with 2 nM of the labelled probe in PBS buffer for 20 min at room temperature (RT). To examine the effects of small molecule inhibitors on FoxA1 DNA binding, 125 nM of protein was pre-incubated with 5% DMSO, or 1 mM unlabelled probe, or 1.9 mM inhibitor for 1 h, at room temperature (RT), before the addition of 2 nM of the FAM labelled probe for another hour incubation.
Fluorescence anisotropy was measured using Synergy 2 Multi-Mode Microplate Reader with a 485/20-excitation and a 528/20-emission filter. The equilibrium dissociation constants for each wild-type probe were subsequently calculated by fitting the FoxA1 concentration vs. fluorescence polarization plot using Langmuir isotherm in Origin Pro 8 software. Standard error values (precision of the fitted values) were also obtained from the software after fitting.

FoxA1 [3] = molecular target: T1, FoxA1; test: CP/dsDNA-AuNP hybrid sensor protein titration; details: read-out: Binding constant (Kd)
Experimental: Qualitatively, the affinity of FOxA1 to different DNA probes can be identified by the degree of change in fluorescence intensity. For measuring the binding affinity constant Kd, protein titration was conducted using protein:DNA molar ratios of 0:1 to 5:1. That is, in a 50 nM solution of dsDNA-AuNPs, protein was added to achieve a concentration of 0-250 nM. The respective fluorescence intensity of the subsequent CP emission was recorded and compared with a control reaction containing no protein (FIG. 12).

AP-2γ [4] = molecular target: T3, AP-2γ (Homo sapiens, UniProt Q92754); test: Electrophoretic Mobility Shift Assay (EMSA), DNA probe binding; parameters: made in house; details: read-out: Binding constant (Kd)
T3 sequence (Q92754 whole entry, species assumed): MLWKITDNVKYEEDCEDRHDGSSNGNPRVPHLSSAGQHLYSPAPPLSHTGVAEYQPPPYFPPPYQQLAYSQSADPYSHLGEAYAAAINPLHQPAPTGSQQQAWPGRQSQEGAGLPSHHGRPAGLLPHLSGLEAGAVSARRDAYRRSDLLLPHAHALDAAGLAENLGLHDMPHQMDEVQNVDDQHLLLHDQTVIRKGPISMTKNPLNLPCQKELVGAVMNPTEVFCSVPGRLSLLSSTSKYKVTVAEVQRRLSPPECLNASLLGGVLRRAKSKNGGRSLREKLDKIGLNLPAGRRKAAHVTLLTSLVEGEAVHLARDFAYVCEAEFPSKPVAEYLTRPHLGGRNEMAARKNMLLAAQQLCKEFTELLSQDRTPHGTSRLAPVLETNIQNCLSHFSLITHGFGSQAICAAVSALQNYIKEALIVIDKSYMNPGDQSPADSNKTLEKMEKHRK
Text: as §1

AP-2γ [5] = molecular target: T3, AP-2γ; test: Fluorescence anisotropy (FA) with labelled DNA probes; parameters: made in house; details: read-out: Binding constant (Kd)
AP-2γ [6] = molecular target: T3, AP-2γ; test: CP/dsDNA-AuNP hybrid sensor protein titration
Experimental: The protein-DNA binding assay was conducted in three main steps (FIG. 4(A)): • 1) 50 nM dsDNA-AuNPs (referring to dsDNA concentration on the surface of AuNPs) was incubated with protein for 20-40 min at room temperature (RT).
Based on the relationship between protein concentration and fluorescence intensity, the binding constant, Kd, can be calculated using the equation: (F0−F)/(F−Fsat)=([protein]/Kd)^n. […] The slope, n, is the binding stoichiometry of protein to DNA.
The assay was also used to study a second transcription factor, AP-2γ (pI˜7.8), to test the applicability of the method. wtR3 and mtR3 were used as the probe DNA sequences (Table 2). […] From the relative decrease and increase in fluorescent intensity of CP with increasing concentration of AP-2γ, the binding affinity Kd and n were determined.

[7] = CP/dsDNA-AuNPs hybrid sensor (ACP-430)
[8] = CP/dsDNA-AuNPs hybrid sensor (ACP-560)
[9] = CP/dsDNA-AuNPs hybrid sensor (CCP-410)

Compound	Kd (FoxA1 [2]) [µM]	Kd (His-MBP-FoxA1) [µM]	Kd (FoxA1 [3]; [7]) [µM]	Kd (FoxA1 [3]; [8]) [µM]	Kd (FoxA1 [3]; [9]) [µM]	further results
Nc1ccc2nc3ccc(=O)cc-3n(-c3ccccc3)c2c1 [Ligand 4]						Ligand effect on FoxA1-DNA binding (FoxA1 [1]; ACP-430/Probe2-AuNP and CCP-410/Probe2-AuNP): negligible effect; Ligand influence on FoxA1-Probe2 binding (FoxA1 [1]; ACP-430/Probe2-AuNP): retain its binding capability; Selectivity for FoxA1 and AP2γ (FoxA1 and AP2γ): Negative
Probe2: Ideal FoxA1 DNA probe 5′-GTACTGTAAATAAAACT-3′ (SEQ ID NO: 3) with complementary strand (antisense AGTTTTATTTACAGTAC; DNA, backbone and methylation of C not given here; sense strand 5'-thiol-labelled, conjugated to gold nanoparticles)	0.0478	0.016	0.00447	0.00576	0.00502	
wtR3: GC rich wild-type DNA for AP-2γ, 5′-AAAGTGCCCAGAGCCCATG-3′ (SEQ ID NO: 7) with complementary strand (antisense CATGGGCTCTGGGCACTTT; DNA, backbone and methylation of C not given here; sense strand 5'-thiol-labelled, conjugated to gold nanoparticles)						Kd (AP-2γ [4]): 0.139 µM; Kd (AP-2γ [5]): 0.0506 µM; Kd (AP-2γ [6]; read-out: Binding constant (Kd), CP/dsDNA-AuNPs hybrid sensor (ACP-430)): 0.0124 µM; Kd (AP-2γ [6]; read-out: Binding constant (Kd), CP/dsDNA-AuNPs hybrid sensor (ACP-560)): 0.0146 µM; Kd (AP-2γ [6]; read-out: Binding constant (Kd), CP/dsDNA-AuNPs hybrid sensor (CCP-410)): 0.013 µM
Probe1: FoxA1 DNA probe 5′-CACTTTGTTTGCAAAGC-3′ (SEQ ID NO: 1) with complementary strand; modified at the centre (antisense GCTTTGCAAACAAAGTG; DNA, backbone and methylation of C not given here; sense strand 5'-thiol-labelled, conjugated to gold nanoparticles)	0.459	0.231	0.0313	0.0329	0.0341	
